Data published in patent US9439882B2, “Compounds and compositions for the treatment of cancer” (PROMETIC BIOSCIENCES, INC., priority 2010, dated 2016).

Key:
[1] = system: human prostate PC-3 tumor; experiment: Xenograft human prostate PC-3 tumor in mice; format: in vivo; conditions: cyclophosphamide alone; p≦0.05; FIG. 15
Procedure: The xenogenic human prostate tumor PC-3 was obtained from ATCC (CRL1435). PC-3 cells were grown in RPMI-1640 containing 10% fetal bovine serum. At day 0, 50 μL of viable PC-3 (1.5 to 2×10^6) cells were subcutaneously injected to produce localized tumors in 6- to 8-week old male CD1 nu/nu mice. The animals were then serially monitored by manual palpation for evidence of tumor. […] Mice were sacrificed at day 56. Serial tumor volume was obtained by bi-dimensional diameter measurements with calipers, using the formula 0.4 (a×b^2) where “a” was the major tumor diameter and “b” the minor perpendicular diameter.

LL/2 lung tumor = LL/2 lung tumor in mice; format: in vivo; conditions: sodium decanoate oral 200 mg/kg daily; gemcitabine i.p. 50 mg/kg day 1, 8, 15, 22; FIG. 11
Text: The syngeneic tumor LL/2 is a lung tumor cell line obtained from ATCC (CRL-1642). […] Mice were sacrificed at day 26. […] Tumors were palpable, in general, 3-5 days post-inoculation.

IL-12 production = IL-12 production in LPS-stimulated RAW264.7 cells (ELISA); format: cell-based; conditions: compound 0.5 mM; 100 ng/mL LPS, 21 h
Procedure: The effect of selected compounds on IL-12 production was undertaken in RAW264.7 (macrophage-like) cells. RAW264.7 cells were cultured with 100 ng/mL of LPS in presence or absence of compounds for 21 h in a humidified atmosphere of 95% air-5% carbon dioxide at 37° C. IL-12 concentration in the culture medium was measured using the IL-12 ELISA according to the manufacturer (BD Biosciences) recommendations. […] Compounds have no effect on IL-12 production in the absence of LPS.

P815 mastocytoma = experiment: Primary P815 mastocytoma tumor growth in mice; format: in vivo
Text: The syngeneic tumor P815 is a DBA/2 (H-2^d)-derived mastocytoma obtained from ATCC (TIB64). […] Mice were sacrificed around day 23 (depending on the experiment). […] Tumors were palpable, in general, 3-5 days post-inoculation.

Panc02 pancreatic cancer = experiment: Subcutaneous Panc02 pancreatic tumor growth; format: in vivo, mice; conditions: from day 34-39; oral; p<0.05; FIG. 16
HK-2 cells = experiment: TGF-β induced epithelial to mesenchymal transition in HK-2 cells (real-time PCR of E-cadherin, CTGF, collagen 1); format: cell-based, human; conditions: sodium decanoate and Compound I at 0.5 mM; for TGF-β induced EMT: HK-2 cells; for CTGF transcript expression / collagen 1 transcript expression: TGF-β-stimulated cells, 24 h, normalized to GAPDH; for basal expression of CTGF / basal expression of collagen 1: compound alone, no TGF-β
Procedure: (§1) FIG. 20 is a bar graph showing the effect of Compound XVII on E-cadherin in normal HK-2 cells and in TGF-β induced EMT cells. Real-time PCR using human E-cadherin TaqMan® Gene Expression Assay normalized to human GAPDH endogenous control; reference is TGF-δ-treated cells 24 h (RQ=1). *means p<0.05, and ** means p<0.01 (t-test).
as §1, with “FIG. 21” for “FIG. 20”, “on CTGF” for “on E-cadherin”, “human CTGH” for “human E-cadherin”, “is TGF-β-treated” for “is TGF-δ-treated”
FIG. 22 is a bar graph showing the effect of Compound XVII on collagen 1 in normal HK-2 cells and in TGF-β induced EMT cells. Real-time PCR using human Collagen 1 TaqMan® Gene Expression Assay normalized to human GAPDH endogenous control; reference is TGF-β-treated cells 24 h (RQ=1). ** means p<0.01 (t-test).
Real-time PCR using human CTGF TaqMan® Gene Expression Assay and Collagen 1 TaqMan® Gene Expression Assay normalized to human GAPDH endogenous control; reference is TGF-β-treated cells 24 h (RQ=1).
FIG. 24 is a bar graph showing the effect of Compound I on CTGF and collagen 1 expression in normal HK-2 cells and in TGF-β induced EMT cells. Real-time PCR using human CTGF TaqMan® Gene Expression Assay and Collagen 1α1 TaqMan® Gene Expression Assay normalized to human GAPDH endogenous control; reference is TGF-β-treated cells 24 h (RQ=1). Compound I is added at 0.5 mM.
Further analysis was undertaken to determine the effect of Compoounds on EMT. The effect of Compound XVII on TGF-β induced EMT was analyzed on human epithelial […] cells (HK-2). To assess the progression of EMT, the pro-epithelial marker E-cadherin and the mesenchymal/pro-fibrotic markers CTGF and collagen 1 were assayed by quantitative real-time PCR. To determine the efficacy of Compound XVII in inhibiting TGF-β-induced EMT, verification of the ability of TGF-β to induce EMT in HK-2 cells.

CTGF production [2] = experiment: Inhibition of TGF-induced CTGF production in NHDF (ELISA); format: cell-based; conditions: Homo sapiens, 10 ng/mL TGF-β, 48 h
Procedure: (§2) The effect of selected compounds on CTGF production was undertaken in normal human dermal fibroblast (NHDF) or human mesangial cells. Cells were cultured in DMEM (0.5% FBS) with or without 10 ng/mL of TGF-β for 48 h in a humidified atmosphere of 95% air-5% carbon dioxide at 37° C. CTGF measurement in the culture medium was measured using the CTGF ELISA according to the manufacturer (Prepotech) recommendations.

B16F10 melanoma cells = experiment: Primary B16F10 melanoma tumor in mice; format: in vivo; conditions: C57BL/6 mice; sodium decanoate 100 mg/kg oral daily, doxorubicin 5 mg/kg (subtherapeutic dose); FIG. 3
Procedure: Female 6-8 week old C57BL/6 mice were injected subcutaneously on day 0 with 50 μL of 3.75×10^4 viable B16F10 melanoma cells from ATCC (source of cell culture, Dr. I. J. Fidler). On day 14, tumors reached […] and animals were randomized for treatment. […] Mice were sacrificed on day 12.

CT-26WT colon tumor = experiment: Primary colon CT-26WT tumor in mice; format: in vivo; conditions: sodium decanoate oral 200 mg/kg daily; 5-fluorouracil i.p. 40 mg/kg day 6, 13, 20; Compound XV oral; FIG. 12 and 13
Procedure: The syngeneic tumor CT-26WT (CT-26) is a colon tumor cell line obtained from ATCC (CRL-2638). CT-26 cells were grown in RPMI containing 10% fetal bovine serum. At day 0, 50 μL of 5×10^6 viable CT-26 cells were subcutaneously injected to produce localized tumors in 6- to 8-week old mice. The animals were then serially monitored by manual palpation for evidence of tumor. […] Mice were sacrificed at day 25. Serial tumor volume was obtained by bi-dimensional diameter measurements with calipers, using the formula 0.4 (a×b^2) where “a” was the major tumor diameter and “b” the minor perpendicular diameter. Tumors were palpable, in general, 3-5 days post-inoculation.

P815 liver metastasis = P815 liver metastasis in mice; format: in vivo; conditions: oral 200 mg/kg; p<0.05; FIG. 9 and 10
Procedure: The syngeneic tumor P815 is a DBA/2 (H-2^d)-derived mastocytoma obtained from ATCC (TIB64). P815 cells were grown in DMEM containing 10% fetal bovine serum. At day 0, 50 μL of 5×10^5 viable P815 cells were subcutaneously injected to produce localized tumors in 6- to 8-week old DBA/2 mice. The animals were then serially monitored by manual palpation for evidence of tumor. […] Mice were sacrificed around day 23 (depending on the experiment). Serial tumor volume was obtained by bi-dimensional diameter measurements with calipers, using the formula 0.4 (a×b^2) where “a” was the major tumor diameter and “b” the minor perpendicular diameter. Tumors were palpable, in general, 3-5 days post-inoculation.
It is known that P815 cells have the capacity to metastasize to the liver.

CTGF production [3] = experiment: Inhibition of TGF-induced CTGF production in human mesangial cells (ELISA); format: cell-based; conditions: FIG. 2
Procedure: as §2

[4] = system: Panc02 pancreatic adenocarcinoma; experiment: Orthotopic Panc02 pancreatic cancer model, survival; format: in vivo; conditions: C57BL/6 mice; gemcitabine i.p. 50 mg/kg once a week, Compound XV oral 200 mg/kg daily; control 50 days; FIG. 4
Procedure: Syngeneic Panc02 is a pancreatic adenocarcinoma tumor cell line obtained from NCI (0507232). Panc02 cells are positive for Ki-Ras, p53, HerNEU and CDK. Panc02 were grown in RPMI-1640 containing 10% fetal bovine serum. At day 0, 50 μL of 5×10^5 viable Panc02 cells were injected into the tail of the pancreas in 6- to 8-week old C57BL/6 mice. Mice were then treated every day with oral administration of vehicle (saline, negative control), or Compound XV and with intraperitoneal injection of gemcitabine (50 mg/kg) once a week starting at day 8.

Structure (SMILES)	tumor growth T/C [1]	efficacy on primary tumor LL/2 (single agent) (LL/2 lung tumor)	IL-12 (IL-12 production) [pg/mL]	P815 tumor growth (P815 mastocytoma; DBA/2 mice, oral 40-200 mg/kg every day, FIG. 6)	P815 tumor growth (P815 mastocytoma; oral 200 mg/kg, FIG. 7 and 8)	tumor growth Treated/Control (T/C) (Panc02 pancreatic cancer)	TGF-β induced EMT (HK-2 cells)	CTGF transcript expression (HK-2 cells)	collagen 1 transcript expression (HK-2 cells)	basal expression of CTGF (HK-2 cells)	basal expression of collagen 1 (HK-2 cells)	inhibition at 500 µM (CTGF production [2]; 500 μM) [%]	reduction of primary tumor volume compared to the control (B16F10 melanoma cells)	efficacy on primary tumor CT-26 (single agent) (CT-26WT colon tumor)	reduction of mice with liver metastasis (P815 liver metastasis) [%]	inhibition of TGF-induced CTGF production (CTGF production [3])	inhibition at 200 µM (CTGF production [2]; 200 μM) [%]	median survival [4] [days]
O=P1(N(CCCl)CCCl)NCCCO1 (centres unmarked) [Cyclophosphamide, cyclophosphamide]	42-78%																	
CCCCCCCCCC(=O)[O-].[Na+] [Sodium decanoate]		weak efficacy	50	significant reduction (p<0.05)	significant reduction (p<0.05)	60-70%	significant inhibition	reduction	reduction	reduction	reduction	51	around 25%	weak efficacy	50			
CCCCCc1cccc(CC(=O)[O-])c1.[Na+] [Compound I, Sodium Salt of (3-pentylphenyl)Acetic Acid]			54		significant reduction (p<0.05)		significant inhibition	reduction	reduction	reduction	reduction					significant (p<0.05) inhibition	54	
Nc1ccn([C@@H]2O[C@H](CO)[C@@H](O)C2(F)F)c(=O)n1 [gemcitabine, reference compound]		weak efficacy																68.5
